Laboratory results published in US20210311050A1, “TARGETING PATHOGENIC B CELLS IN AUTOIMMUNITY” (Research Foundation for the STATE UNIVERSITY OF NEW YORK, priority 2018, published 2021).
“Also recorded” adds a separate entry of the source.

How the values were obtained:
CD11c^+ T-bet^+ B cells = experiment: Depletion of splenic CD11c+ T-bet+ B cells in E. muris-infected mice (flow cytometry); assay type: in vivo, C57BL/6 mice
[1] = system: CD11c^+ CD19^+ B cells (also T-bet^+); experiment: Agonist treatment of E. muris-infected wild-type versus B cell-specific A2aR KO mice (flow cytometry of spleen cells); assay type: in vivo; settings: 30 days post-infection, treated every other day for 7 days
Procedure: FIGS. 3A-3B. […] CD11c and CD19 flow cytometry data from (A) Wild type mice (B) mice that lacked A2aR only on B cells. The mice were infected with E. muris; 30 days post-infection wild-type or MB1-cre×A2aR^fl/fl (B cell-specific A2aR KO) mice were treated with CGS21680 every other day for 7 days, at which time spleen cells were analyzed by flow cytometry. CD11c^+ CD19^+ B cells (also T-bet^+) were eliminated in the wild-type mice (A), but not in the B cell-specific A2aR KO mice (B). The data shown are representative of several experiments.

[2] = system: CD11c^+ CD19^+ or T-bet^+ CD19^+ B cells; experiment: Depletion of T-bet+ B cells in lupus-prone SLE1.2.3 mice (flow cytometry of spleen cells); assay type: in vivo, SLE1.2.3 (B6.NZMs^Sle1/Sle2/Sle3) mice; settings: nine-month old SLE mice, treated every other day for 7 days, n=6
Procedure: FIGS. 4A-4D. Agonist treatment eliminated T-bet+ B cells in lupus-prone SLE1.2.3 (B6.NZMs^Sle1/Sle2/Sle3) mice. (A) CD11c and CD19 flow cytometry data from vehicle treated mice. (B) CD11c and CD19 flow cytometry data from A2aR agonist (CGS21680)-treated mice. (C) T-bet and CD19 flow cytometry data from vehicle-treated mice. (D) T-bet and CD19 flow cytometry data from agonist (CGS21680)-treated mice. Nine-month old SLE mice were treated with vehicle, or CGS21680, every other day for 7 days, at which time spleen cells were analyzed by flow cytometry. CD11c^+ CD19^+ ((A) and (B)) or T-bet^+ CD19^+ ((C) and (D)) B cells were analyzed. […] The data shown are representative of an experiment where n=6.

CD11c^+ CD19^+ B cells [3] = experiment: Depletion of T-bet+ B cells in lupus-prone MRL/lpr mice (flow cytometry of spleen cells); assay type: in vivo, MRL/lpr (MRL/MpJ-Fas^lpr/J) mice; settings: 12 to 13 week old MRL/lpr mice, treated every other day for 7 days
Procedure: FIGS. 5A-5B. Agonist treatment eliminated T-bet^+ B cells in lupus-prone MRL/lpr (MRL/MpJ-Fas^lpr/J) mice. CD11c and CD19 flow cytometry data from (A) vehicle-treated mice and (B) A2aR agonist (CGS21680)-treated mice. 12 to 13 week old MRL/lpr mice were treated with vehicle, or CGS21680, every other day for 7 days, at which time spleen cells were analyzed by flow cytometry.

CD11c^+ CD19^+ B cells [4] = experiment: In vitro agonist treatment of T cell-depleted spleen cells from E. muris-infected mice; assay type: cell-based; settings: 48 hours
Procedure: FIGS. 6A-6B. In vitro agonist treatment eliminated T-bet^+ B cells. CD11c and CD19 flow cytometry data using B cells isolated from (A) vehicle-treated splenocytoes and (B) A2aR agonist (CGS21680)-treated splenocytes. C57BL/6 mice were infected with E. muris; 30 days post-infection, T cell-depleted spleen cells were incubated in cell culture medium treated with vehicle, or CGS21680 (1 μM), for 48 hours. Approximately 50% of the CD11c^+ CD19^+ B cells were depleted by the agonist.
FIGS. 7A-7B. In vitro Regadenoson treatment eliminated T-bet^+ B cells. (A) vehicle treated splenocytes and (B) agonist (Regadenoson)-treated splenocytes. Mice were infected with E. muris; 44 days post-infection, T cell-depleted spleen cells were incubated in medium with or without Regadenson (10 μM), for 48 hours. Approximately 30% of the CD11c^+ CD19^+ B cells were depleted by Regadenoson in vitro.

[5] = system: T-bet+ Age-related B cells (ABCs); experiment: Depletion of T-bet+ Age-related B cells (ABCs) in aged mice; assay type: in vivo; settings: administered at day 0, 4 and 6; sacrificed day 7; flow cytometry
Procedure: FIG. 8A-8C. T-bet+ Age-related B cells (ABCs) were depleted in aged mice upon CGS21680 treatment. CD11c and CD19 flow cytometry data from (A) vehicle-treated and (B) A2aR agonist-(CGS21680) treated aged mice. CGS21680 was administered at day 0, 4 and 6. Mice were sacrificed on day 7 and ABCs were identified using flow cytometry. (C) Quantification of the data in (A) and (B).

[6] = system: anti-nuclear antibodies (ANAs); experiment: Anti-nuclear antibodies in lupus-prone MRL/lpr mice; assay type: in vivo; settings: once weekly from 9 weeks of age, sacrificed at 15 weeks of age
From the text: FIG. 9. […] CGS21680-treated mice had much lower amounts of anti-nuclear antibodies (ANAs). ANAs are a signature of disease in lupus mice.

`CCNC(=O)[C@H]1O[C@@H](n2cnc3c(N)nc(NCCc4ccc(CCC(=O)O)cc4)nc32)[C@H](O)[C@@H]1O` [CGS21680] was tested, and the “CD11c^+ T-bet^+ B cells in spleen after cessation of treatment” value (CD11c^+ T-bet^+ B cells; 2.5 mg/kg daily for 7 days from day 30, spleen harvested 12 days following cessation (day 48), p<0.0001 vs vehicle) was “prolonged depletion; also recorded: Significant cell depletion”, the “CD11c^+ T-bet^+ B cells in spleen after agonist treatment” value (CD11c^+ T-bet^+ B cells; E. muris infection day 0, 2.5 mg/kg daily for 7 days from day 30, spleen harvested day 37, p<0.0001 vs vehicle, 2.5 mg/kg) was “largely absent; also recorded: major reduction” and the “CD11c^+ CD19^+ B cells (also T-bet^+) in spleen, B cell-specific A2aR KO mice” value ([1]; MB1-cre×A2aR^fl/fl mice) was “did not eliminate”. For the same molecule, the “CD11c^+ CD19^+ B cells (also T-bet^+) in spleen, wild-type mice” value ([1]; wild-type mice) was “eliminated”, the “CD11c^+ CD19^+ or T-bet^+ CD19^+ B cells in spleen” value [2] was “largely eliminated” and the “CD11c^+ CD19^+ B cells in spleen” value (CD11c^+ CD19^+ B cells [3]) was “Most of the CD11c^+ CD19^+ B cells were eliminated”. For the same molecule, the “CD11c^+ CD19^+ B cells depleted in vitro” value (CD11c^+ CD19^+ B cells [4]; 1 μM, 30 days post-infection) was “Approximately 50%”, the “T-bet+ Age-related B cells (ABCs) in aged mice” value [5] was “depleted” and the “amounts of anti-nuclear antibodies (ANAs)” value [6] was “much lower”.

With `CNC(=O)c1cnn(-c2nc(N)c3ncn([C@@H]4O[C@H](CO)[C@@H](O)[C@H]4O)c3n2)c1` [Regadenoson] the “number of Tbet^+ B cells in splenocytes” value (CD11c^+ T-bet^+ B cells; 2.5 mg/kg every other day for 7 days from day 30 post-infection, analysed day 37, P=0.0049 vs vehicle) was “reduced” and the “CD11c^+ CD19^+ B cells depleted in vitro” value (CD11c^+ CD19^+ B cells [4]; 10 μM, 44 days post-infection) was “Approximately 30%”.
